Experimental data published in publication PMC6768916, “Population pharmacokinetics of fedratinib in patients with myelofibrosis, polycythemia vera, and essential thrombocythemia” (Cancer Chemotherapy and Pharmacology, 2019).
Entries after “also recorded” stand apart in the source; their conditions may differ. Read-outs that look alike come from different tables or passages of the source.

How the values were obtained:
FLT3 = tested on: FLT3; design: method as in PMID 18394554; conditions: cited from earlier work
[1] = human, in vivo; cited from earlier work
wild-type JAK2 = tested on: wild-type JAK2; design: method as in PMID 18394554; conditions: cited from earlier work
[2] = population pharmacokinetic model in patients with MF, PV or ET; assay type: in vivo, human
Protocol: The population PK analysis utilized data from one phase 1 study (TED12037 [NCT00631462]), four phase 2 studies (ARD11936 [NCT01420770], ARD12042 [NCT01420783], ARD12181 [NCT01523171], ARD12888 [NCT01692366]) and one phase 3 study (EFC12153 [NCT01437787]). Study design, dosing regimen, and PK sampling information are presented in Supplementary Table 1. These studies were conducted in accordance with the Declaration of Helsinki and the International Council for Harmonisation Guideline for Good Clinical Practice (ICH E6). Written informed consent was obtained from all subjects.
Concentrations of fedratinib in plasma were determined using a validated high-performance liquid chromatography with tandem mass spectrometric detection, with good accuracy (− 6.75–8.8%) and precision (4.84–13.11%). The lower limit of quantification was 1 ng/mL, and the calibration range was 1–1000 ng/mL.
Population PK analyses were conducted using a nonlinear mixed-effect modeling approach, as implemented in the NONMEM software version 7.3.0 (ICON Development Solutions, Ellicott City, MD). Plotting of NONMEM outputs was conducted using the R software (version 3.4.1) and RStudio (version 1.1.456, Boston, MA).
In the development of the structural model, one- to three-compartment models with first-order elimination and different absorption models including first-order absorption with and without lag time, zero-order absorption and transit compartment model were tested to fit the plasma concentration-time data. First-order conditional estimation (FOCE) with interaction method was used for parameter estimation, with natural logarithm-transformed plasma fedratinib concentration data. The inter-subject variability was modeled assuming a log-normal distribution. Residual variability was modeled using an additive model. The model selection was based on the objective function value (OFV) using the log-likelihood ratio test, the goodness of fit criteria and visual predictive check (VPC). Covariate model building was carried out using a stepwise procedure, with significance levels set to 0.01 and 0.001 for the forward inclusion and backward elimination steps, respectively. Missing baseline covariates were imputed as the median value in the study population.
Stability of the final PK parameter estimates and the 95% confidence interval (CI) for the parameters were evaluated using the nonparametric bootstrap approach. With this approach, 500 datasets of size equal to the original dataset were generated by random resampling with replacement from the original dataset. The final model was fit to each of the 500 bootstrap datasets and all the model parameters were estimated for each dataset. The median and nonparametric 95% CI (2.5–97.5 percentiles) of the 500 estimates were calculated for each parameter. The ability of the final population PK model to describe the observed concentration data was evaluated by simulating 200 datasets having the same doses, dosing schedules and sampling times as the original dataset and by performing prediction-corrected VPC [18]. The 5th, 50th and 95th prediction percentiles of the fedratinib concentrations at each binned time point were computed for each simulated trial. Thereafter, the nonparametric 90% CI of the 5th, 50th and 95th prediction percentiles at each binned time point were calculated for the 200 simulated trials.

[3] = tested on: activated mutant JAK2 V617F; design: method as in PMID 18394554; conditions: cited from earlier work
[4] = tested on: JAK2 V617F-driven aberrant human PV progenitor erythroid differentiation; design: method as in PMID 18394555; conditions: cited from earlier work
[5] = cited from earlier work
[6] = final model, inter-individual variability

increase in exposure (steady-state AUC) with moderate renal impairment vs normal renal function ([2]; 30 ≤ CLcr < 60 mL/min vs CLcr ≥ 90 mL/min): 37%
increase in exposure (steady-state AUC) with mild renal impairment vs normal renal function ([2]; 60 ≤ CLcr < 90 mL/min vs CLcr ≥ 90 mL/min): 10%
apparent clearance of a typical PV patient ([2]; CLcr = 78.5 mL/min): 20.0 L/h
increase in typical AUC with severe renal impairment vs normal renal function ([2]; MF patients, severe renal impairment, N = 3): 59%
typical value of CL/F, base model ([2]; base model): 13.6 L/h
typical value of V2/F, base model ([2]; base model): 340 L
magnitude of changes in V2/F by dose ([2]; covariate analysis): less than 30%
CL/F higher in PV patients compared to MF or ET patients ([2]; final model): 54%
CL/F of a typical MF patient ([2]; final model): 13.0 L/h
TVCL/F, parameter estimate ([2]; final model): 13.0 L/h
TVKa, parameter estimate ([2]; final model): 1.57 h⁻¹
TVQ/F, parameter estimate ([2]; final model): 45.2 L/h
TVV2/F, parameter estimate ([2]; final model): 311 L
TVV3/F, parameter estimate ([2]; final model): 1460 L
V2/F higher in PV patients compared to MF or ET patients ([2]; final model): 87%
fold higher CL/F in PV patients compared to MF or ET patients ([2]; final model): 1.54 fold
fold higher V2/F in PV patients compared to MF or ET patients ([2]; final model): 1.87 fold
TVCL/F, bootstrap median (95% CI) ([2]; final model, 484 of 500 bootstrap replicates): 13.1 (12.4 to 13.9) L/h
TVALAG1, parameter estimate ([2]; final model, absorption lag time): 0.265 h
COVCL/F-V2/F, bootstrap median (95% CI) ([2]; final model, bootstrap): 0.193 (0.145 to 0.249)
PV on V2/F, bootstrap median (95% CI) ([2]; final model, bootstrap): 1.85 (1.40 to 2.42)
TVALAG1, bootstrap median (95% CI) ([2]; final model, bootstrap): 0.265 (0.264 to 0.321) h
TVKa, bootstrap median (95% CI) ([2]; final model, bootstrap): 1.64 (1.34 to 2.05) h^−1
TVQ/F, bootstrap median (95% CI) ([2]; final model, bootstrap): 45.2 (38.5 to 52.9) L/h
TVV2/F, bootstrap median (95% CI) ([2]; final model, bootstrap): 313 (282 to 343) L
TVV3/F, bootstrap median (95% CI) ([2]; final model, bootstrap): 1470 (1190 to 1790) L
Weight on V2/F, bootstrap median (95% CI) ([2]; final model, bootstrap): 0.733 (0.383 to 1.10)
σ^2 (Log additive), bootstrap median (95% CI) ([2]; final model, bootstrap): 0.194 (0.159 to 0.264)
ω^2, Ka, bootstrap median (95% CI) ([2]; final model, bootstrap): 1.09 (0.728 to 1.54)
ω^2, V2/F, bootstrap median (95% CI) ([2]; final model, bootstrap): 0.371 (0.247 to 0.510)
COVCL/F-V2/F, parameter estimate ([2]; final model, covariance): 0.197
PV on V2/F, parameter estimate ([2]; final model, covariate factor if PV): 1.87
Weight on V2/F, parameter estimate ([2]; final model, exponent of (Weight/70.1)): 0.727
ω^2, Ka, parameter estimate [2, 6]: 1.07
ω^2, V2/F, parameter estimate [2, 6]: 0.383
σ^2 (Log additive), parameter estimate ([2]; final model, residual variability): 0.201
SMILES: Cc1cnc(Nc2ccc(OCCN3CCCC3)cc2)nc1Nc1cccc(S(=O)(=O)NC(C)(C)C)c1 [fedratinib, Fedratinib]
IC50 (FLT3): 15 nM
CL/F of healthy subjects [1]: 20.7 to 46.0 L/h
dose proportionality of exposure [1]: greater than dose-proportional increase
mean terminal half-life [1]: 62 to 78 h
selectivity for JAK2 over JAK1, JAK3 and TYK2 (wild-type JAK2): selective for JAK2 over JAK1, JAK3 and TYK2
IC50 (wild-type JAK2; wild-type JAK2): 3 nM
magnitude of changes in V2/F by body weight ([2]; body weight 39.5 to 135 kg): less than 30%
linearity of PK with dose ([2]; doses of 200 mg and above): linear, time-invariant PK; also recorded: increased linearly
effect of age, body weight, sex, race and liver function on exposure/PK ([2]; population PK covariate analysis): No clinically meaningful effect
IC50 [3]: 3 nM
inhibition of JAK2 V617F-driven aberrant human PV progenitor erythroid differentiation [4]: significantly inhibits
dose proportionality of exposure ([5]; 300–500 mg at steady state): approximately dose-proportional
mean accumulation ratio ([5]; 300–500 mg once daily, steady state): 2.95–3.88
time to peak plasma concentration ([5]; human, in vivo, po): 0.5 to 4 h
dose proportionality of exposure ([5]; human, in vivo): greater than dose-proportional increase
time to steady state of plasma levels ([5]; once daily dosing): ≤ 15 days
